For the assay, the target named is T1, F1F0-ATP synthase (ATPase, complex V) (Rattus norvegicus, UniProt P05504+Q06645).
T1 construct: gene Atp5mc1; native complex from brain mitochondria (male Wistar rat), immunocaptured in microplate wells (Abcam ab109714 kit); mature c subunit is identical from Atp5mc1/Atp5mc2/Atp5mc3; with ATP synthase F(1) complex subunit alpha, mitochondrial; ATP synthase F(1) complex catalytic subunit beta, mitochondrial; ATP synthase F(1) complex subunit gamma, mitochondrial; ATP synthase F(1) complex subunit delta, mitochondrial; ATP synthase F(1) complex subunit epsilon, mitochondrial; ATP synthase peripheral stalk subunit OSCP, mitochondrial; ATP synthase peripheral stalk-membrane subunit b, mitochondrial
Put plainly: ATP hydrolysis coupled to NADH oxidation, absorbance […] nm, immunocapture kit. The format is biochemical.

As for `COc1nc2ccc(Br)cc2cc1[C@@H](c1ccccc1)[C@@](O)(CCN(C)C)c1cccc2ccccc12` [BDQ, Bedaquiline], the inhibition (in general, the percentage by which the read-out fell short of the control) at 5 µM is about 50%.
